Patent publication US20250179031A1, “PROTEASOME ENHANCERS AND USES THEREOF” (Board of Trustees of Michigan State University, priority 2022, published 2025)
Blank lines part the entries; values can stand above or below the molecule they belong to.

How the values were obtained:
Format in all cases: biochemical
human 20S proteasome = tested on: T1, human 20S proteasome; assay: Fluorogenic peptide degradation 20S proteasome activity assay, combination of CT-L, T-L and Casp-L substrates; settings: for Fold increase over vehicle (30 μM), enhancement of 20S activity: 30 μM compound, mixture of the three substrates, 15 min pre-treatment at 37° C., 1 h read; for concentration at which 20S activity was doubled in the combination (in words) / AC200 (concentration at which 20S activity was doubled), Combo / Max Fold, Combo: combination of the three substrates; for AC200 (concentration at which 20S activity was doubled), Combo / Max Fold, Combo: 1.25-40 μM titration
T1 construct: purchased Boston Biochem, Inc. (Cambridge, MA)
Experimental: (§1) Activity assays were carried out in a 100 μL reaction volume. Different concentrations (40-1.25 μM) of test compounds (1 μL) were added to a black flat/clear bottom 96-well plate containing 2 nM of human constitutive 20S proteasome ([…]), in 50 mM Tris-HCl at pH 7.8, 100 mM NaCl and allowed to incubate for 15 min at 37° C. Fluorogenic substrates (5 μL) were then added and the enzymatic activity measured at 37° C. on a SpectraMax M5e spectrometer by measuring the change in fluorescence unit per minute for 1 hour at 380-460 nm. The fluorescence units for the vehicle control were set at a 100%, and the ratio of drug-treated sample set to that of vehicle control was used to calculate the fold change in enzymatic activity. The fluorogenic substrates used were one of the following: Suc-LLVY-AMC (CT-L activity, 20 μM), Z-LLE-AMC (Casp-L activity, 20 μM), Boc-LRR-AMC (Trp-L activity, 40 μM) or a combination of the three substrates each at 6.67 μM. Results were analysed and plotted using GraphPad Prism 7.
(§2) Screening of this library of dihydroquinazolines was performed in two stages. In the first stage, each compound was screened at three concentrations (3, 10 and 30 μM) to select lead agents. Secondly, lead agents were further analyzed using full concentration responses (6-point titration ranging from 1.25 μM-40 μM) for each of the three proteolytic activities of the 20S proteasome and a combination thereof. The proteolytic activity of the 20S proteasome can be monitored in vitro by measuring the cleavage of fluorogenic peptide substrates for the different catalytic sites as an increase in 7-amino-4-methycoumarin (AMC) fluorescence overtime. A combination of chymotrypsin-like (CT-L, Suc-LLVY-AMC), tryptic-like (T-L, Boc-LRR-AMC) and caspase-like (Casp-L, Z-LLE-AMC) peptide substrates were used in equal amounts to screen compounds for overall 20S activity.
Pure human 20S proteasome was pre-treated with 3, 10 or 30 μM of one of the analogues or DMSO (vehicle control) for 15 min at 37° C. To each sample was then added a mixture of the three substrates (13.3 μM each). The release of AMC was monitored as fluorescence overtime for 1 h and the resulting 20S activity changes were determined by comparing to the untreated 20S and calculating the fold-increase in activity for each analogue at a given concentration (Table 1, 30 μM).
(§3) After analyzing the results in Table 1, three of the most promising analogues were selected for further studies into their 20S activity. Compounds 10, 2 and 18 were selected to be carried forward based on their fold increase and the highest Max-Fold activities. […] These compounds were then tested to obtain a full concentration—response (FIG. 1) of their activities towards the 20S proteasome using each of the three substrates for the three catalytic sites individually and the combination of the three substrates. This was done to ensure that each of the selected compounds activate the 20S proteasome at all three catalytic sites, which is critical for effective IDP degradation, as these proteins are likely to contain multiple cleavage sites for each.
(§4) Using the data in FIG. 1, the concentration at which 20S activity was doubled (AC200) was calculated for each compound using each substrate and the combination of the three substrates (Table 2).

[1] = tested on: T2, human 20S proteasome, chymotrypsin-like (CT-L) site; assay: Fluorogenic peptide degradation 20S proteasome activity assay, Suc-LLVY-AMC (CT-L activity); settings: Suc-LLVY-AMC substrate
T2 construct: purchased Boston Biochem, Inc. (Cambridge, MA)
Experimental: as §1, §2, §3, §4

[2] = tested on: T3, human 20S proteasome, caspase-like (Casp-L) site; assay: Fluorogenic peptide degradation 20S proteasome activity assay, Z-LLE-AMC (Casp-L activity); settings: Z-LLE-AMC substrate
T3 construct: purchased Boston Biochem, Inc. (Cambridge, MA)
Experimental: as §1, §2, §3, §4

[3] = tested on: T4, human 20S proteasome, tryptic-like (T-L) site; assay: Fluorogenic peptide degradation 20S proteasome activity assay, Boc-LRR-AMC (T-L activity); settings: Boc-LRR-AMC substrate
T4 construct: purchased Boston Biochem, Inc. (Cambridge, MA)
Experimental: as §1, §2, §3, §4

[4] = tested on: T5, human 20S proteasome (α-synuclein substrate); assay: In vitro purified α-synuclein degradation assay (silver stain); settings: pure human α-synuclein, 4 h at 37° C., silver stain quantified
T5 construct: purchased Boston Biochem, Inc. (Cambridge, MA)
Experimental: Representative silver stain of these alpha-synuclein digestions and quantification of three trials. 20S proteasome subunits were used as a loading control in the quantification (right). […] Error bars denote standard deviation. Ordinary one-way ANOVA statistical analysis was used to determine statistical significance (ns=not significant, *p<0.05, **p<0.01, […], and ****p<0.00001).
In vitro purified α-synuclein degradation assay. Digestion of α-synuclein was carried out in a 50 μL reaction volume made of 50 mM Tris and 100 mM NaCl at pH 7.8; 0.5 μM purified α-synuclein and 6.7 nM purified human 20S proteasome. Briefly, 20S proteasome was diluted to 7.58 nM in the reaction buffer. Test compounds or vehicle (1 μL of 50× stock or DMSO) were added to 44 μL of 7.58 nM 20S and incubated at 37° C. for 20 min. 5 μL of 5 μM α-synuclein substrate was then added to the reaction mixture and incubated at 37° C. for 4 hours. The reactions were quenched with concentrated sodium dodecyl sulfate (SDS) loading buffer. After boiling for 10 min, samples were resolved on a 4-20% Tris-glycine SDS-PAGE gel. The gels were then stained using a Pierce Silver Stain Kit (Thermo Scientific, Rockford IL) and the provided procedure. Silver stained gels were then quantified using ImageJ. […]

Compound: c1ccc(CN2C(c3ccccc3)=Nc3ccccc3C2c2ccccc2)cc1 (stereo not drawn) [Compound 1, 3-Benzyl-2,4-diphenyl-3,4-dihydroquinazoline]
Fold increase over vehicle (30 μM), enhancement of 20S activity (human 20S proteasome): 4 fold

Compound: COc1ccc2c(c1)N=C(c1ccccc1)N(Cc1ccccc1)C2c1ccccc1 (stereo not drawn) [Compound 2]
AC200, CT-L [1]: 12.9 µM
Max Fold, CT-L [1]: 5.6 fold
AC200, Casp-L [2]: 5.6 µM
Max Fold, Casp-L [2]: 13.4 fold
AC200, T-L [3]: 5.0 µM
Max Fold, T-L [3]: 11.7 fold
Fold increase over vehicle (30 μM), enhancement of 20S activity (human 20S proteasome): 7.9 fold
concentration at which 20S activity was doubled in the combination (in words) (human 20S proteasome): low μM concentrations
AC200 (concentration at which 20S activity was doubled), Combo (human 20S proteasome): 2.0 µM
Max Fold, Combo (human 20S proteasome): 10.1 fold

Compound: Cc1ccc2c(c1)N=C(c1ccccc1)N(Cc1ccccc1)C2c1ccccc1 (stereo not drawn) [Compound 3, 3-Benzyl-7-methyl-2,4-diphenyl-3,4-dihydroquinazoline]
Fold increase over vehicle (30 μM), enhancement of 20S activity (human 20S proteasome): 8.1 fold

Compound: CCCCCc1ccc2c(c1)N=C(c1ccccc1)N(Cc1ccccc1)C2c1ccccc1 (stereo not drawn) [Compound 4, 3-Benzyl-7-pentyl-2,4-diphenyl-3,4-dihydroquinazoline]
Fold increase over vehicle (30 μM), enhancement of 20S activity (human 20S proteasome): 2.8 fold

Compound: COc1ccc2c(c1)N=C(C1CCCCC1)N(Cc1ccccc1)C2c1ccccc1 (stereo not drawn) [Compound 5, 3-Benzyl-2-cyclohexyl-7-methoxy-4-phenyl-3,4-dihydroquinazoline]
Fold increase over vehicle (30 μM), enhancement of 20S activity (human 20S proteasome): 6.5 fold

Compound: COc1ccc2c(c1)N=C(C1CC1)N(Cc1ccccc1)C2c1ccccc1 (stereo not drawn) [Compound 6]
Fold increase over vehicle (30 μM), enhancement of 20S activity (human 20S proteasome): 2.7 fold

Compound: COc1ccc2c(c1)N=C(C(C)C)N(Cc1ccccc1)C2c1ccccc1 (stereo not drawn) [Compound 7]
Fold increase over vehicle (30 μM), enhancement of 20S activity (human 20S proteasome): 2.3 fold

Compound: CCCCCC1=Nc2cc(OC)ccc2C(c2ccccc2)N1Cc1ccccc1 (stereo not drawn) [Compound 8]
Fold increase over vehicle (30 μM), enhancement of 20S activity (human 20S proteasome): 2.8 fold

Compound: COc1ccc2c(c1)N=C(C)N(Cc1ccccc1)C2c1ccccc1 (stereo not drawn) [Compound 9]
Fold increase over vehicle (30 μM), enhancement of 20S activity (human 20S proteasome): 1.8 fold

Compound: COc1ccc2c(c1)N=C(c1ccccc1)N(c1ccccc1)C2c1ccccc1 (stereo not drawn) [Compound 10]
AC200, CT-L [1]: 8.1 µM
Max Fold, CT-L [1]: 6.7 fold
AC200, Casp-L [2]: 5.8 µM
Max Fold, Casp-L [2]: 15.3 fold
AC200, T-L [3]: 2.5 µM
Max Fold, T-L [3]: 15.0 fold
Fold increase over vehicle (30 μM), enhancement of 20S activity (human 20S proteasome): 9.5 fold
concentration at which 20S activity was doubled in the combination (in words) (human 20S proteasome): low μM concentrations
Max Fold, Combo (human 20S proteasome): 11.1 fold

Further lines, with some results ahead:

Fold increase over vehicle (30 μM), enhancement of 20S activity (human 20S proteasome): 6.9 fold
Compound: COc1ccc2c(c1)N=C(c1ccccc1)N(c1ccccn1)C2c1ccccc1 (stereo not drawn) [Compound 11, 7-Methoxy-2,4-diphenyl-3-(2-pyridyl)-3,4-dihydroquinazoline]

Fold increase over vehicle (30 μM), enhancement of 20S activity (human 20S proteasome): 5.9 fold
Compound: COc1ccc2c(c1)N=C(c1ccccc1)N(c1cccnc1)C2c1ccccc1 (stereo not drawn) [Compound 12]

Fold increase over vehicle (30 μM), enhancement of 20S activity (human 20S proteasome): 5.3 fold
Compound: COc1ccc2c(c1)N=C(c1ccccc1)N(c1cccc3cccnc13)C2c1ccccc1 (stereo not drawn) [Compound 13, 7-Methoxy-2,4-diphenyl-3-(8-quinolyl)-3,4-dihydroquinazoline]

Fold increase over vehicle (30 μM), enhancement of 20S activity (human 20S proteasome): 2 fold
Compound: COc1ccc2c(c1)N=C(c1ccccc1)N(Cc1ccccn1)C2c1ccccc1 (stereo not drawn) [Compound 14, 7-Methoxy-2,4-diphenyl-3-[(2-pyridyl)methyl]-3,4-dihydroquinazoline]

Fold increase over vehicle (30 μM), enhancement of 20S activity (human 20S proteasome): 2.8 fold
Compound: COc1ccc2c(c1)N=C(c1ccccc1)N(CCc1ccccn1)C2c1ccccc1 (stereo not drawn) [Compound 15, 7-Methoxy-2,4-diphenyl-3-[2-(2-pyridyl)ethyl]-3,4-dihydroquinazoline]

Fold increase over vehicle (30 μM), enhancement of 20S activity (human 20S proteasome): 6.7 fold
Compound: COc1ccc2c(c1)N=C(c1ccccc1)N(C1CCCCC1)C2c1ccccc1 (stereo not drawn) [Compound 16, 3-Cyclohexyl-7-methoxy-2,4-diphenyl-3,4-dihydroquinazoline]

Max Fold, CT-L [1]: 1.1 fold
Max Fold, Casp-L [2]: 0.8 fold
Max Fold, T-L [3]: 1.0 fold
Fold increase over vehicle (30 μM), enhancement of 20S activity (human 20S proteasome): 1 fold
Max Fold, Combo (human 20S proteasome): 1.4 fold
activity towards the 20S (in words) (human 20S proteasome; screen of Table 1): no discemible activity towards the 20S
Compound: COc1ccc2c(c1)N=C(c1ccccc1)N(C1CCN(C)CC1)C2c1ccccc1 (stereo not drawn) [Compound 17, 7-Methoxy-3-(1-methyl-4-piperidyl)-2,4-diphenyl-3,4-dihydroquinazoline]

AC200, CT-L [1]: 10.5 µM
Max Fold, CT-L [1]: 3.8 fold
AC200, Casp-L [2]: 2.8 µM
Max Fold, Casp-L [2]: 10.6 fold
AC200, T-L [3]: 1.7 µM
Max Fold, T-L [3]: 8.7 fold
Fold increase over vehicle (30 μM), enhancement of 20S activity (human 20S proteasome): 7 fold
concentration at which 20S activity was doubled in the combination (in words) (human 20S proteasome): low μM concentrations
AC200 (concentration at which 20S activity was doubled), Combo (human 20S proteasome): 1.3 µM
Max Fold, Combo (human 20S proteasome): 5.5 fold
Compound: COc1ccc2c(c1)N=C(c1ccccc1)N(C1CCN(Cc3ccccc3)CC1)C2c1ccccc1 (stereo not drawn) [Compound 18]
20S-mediated degradation of α-synuclein (in words) [4]: effectively enhanced the rate of degradation of α-synuclein by the 20S in vitro in a concentration dependent manner

Fold increase over vehicle (30 μM), enhancement of 20S activity (human 20S proteasome): 1.2 fold
Compound: COc1ccc2c(c1)N=C(c1ccccc1)N(CC1CCN(C)CC1)C2c1ccccc1 (stereo not drawn) [Compound 19, 7-Methoxy-3-[(1-methyl-4-piperidyl)methyl]-2,4-diphenyl-3,4-dihydroquinazoline]

Fold increase over vehicle (30 μM), enhancement of 20S activity (human 20S proteasome): 1.6 fold
Compound: COc1ccc2c(c1)N=C(c1ccccc1)N(CC1CCOCC1)C2c1ccccc1 (stereo not drawn) [Compound 20, 7-Methoxy-2,4-diphenyl-3-[(tetrahydro-2H-pyran-4-yl)methyl]-3,4-dihydroquinazoline]

Fold increase over vehicle (30 μM), enhancement of 20S activity (human 20S proteasome): 8.2 fold
Compound: COc1ccc2c(c1)N=C(c1ccccc1)N(CC1CCCCC1)C2c1ccccc1 (stereo not drawn) [Compound 21, 3-(Cyclohexylmethyl)-7-methoxy-2,4-diphenyl-3,4-dihydroquinazoline]

Fold increase over vehicle (30 μM), enhancement of 20S activity (human 20S proteasome): 2.7 fold
Compound: COc1ccc2c(c1)N=C(c1ccccc1)N(CC#N)C2c1ccccc1 (stereo not drawn) [Compound 22, (7-Methoxy-2,4-diphenyl-3,4-dihydroquinazolin-3-yl)acetonitrile]

Fold increase over vehicle (30 μM), enhancement of 20S activity (human 20S proteasome): 2.3 fold
Compound: C=CCN1C(c2ccccc2)=Nc2cc(OC)ccc2C1c1ccccc1 (stereo not drawn) [Compound 23]

Fold increase over vehicle (30 μM), enhancement of 20S activity (human 20S proteasome): 1.6 fold
Compound: CCCCCCN1C(c2ccccc2)=Nc2cc(OC)ccc2C1c1ccccc1 (stereo not drawn) [Compound 24]

20S-mediated degradation of α-synuclein (in words) [4]: prevented α-synuclein degradation
Compound: CC(C)C[C@H](NC(=O)[C@H](Cc1ccccc1)NC(=O)c1cnccn1)B(O)O [bortezomib, reference compound]
